The text below walks through data of publication PMC9822369, “Synthesis, Biological Evaluation, DNA Binding, and Molecular Docking of Hybrid 4,6-Dihydrazone Pyrimidine Derivatives as Antitumor Agents” (Molecules, 2022).

One test relates to A549 cells. Nature of the test: MTT cytotoxicity assay, A549 cells. In kind it is cell-based. As to conditions: Homo sapiens, 48 h, read-out: IC50 against A549. Here is the method: (§1) The MTT method is often used to detect the cytotoxicity of compounds in vitro [64]. The cytotoxicity of 10a–10f was evaluated by MTT assay against BGC-823, BEL-7402, MCF-7, and A549 tumor cells. HL-7702 was selected to evaluate the safety of 10a–10f against human normal cells. 5-FU was also evaluated as a positive control. The well-grown cells were inoculated in 96-well plates at a density of 3000 cells/well and incubated in 37 °C for 24 h. The negative control group, blank control group, and administration group were set up. The cells were incubated with a gradient concentration (1.25, 2.5, 5, 10, and 20 μg/mL) of samples or 5-FU for 48 h. Then, 20 μL MTT solution (5 mg/mL) was added to each well. After the cells were incubated for 4 h, 150 μL DMSO was added to each well before testing. The absorbance was measured at 570 nm with a microplate reader. The inhibition rate and final IC50 values were calculated according to the following formula. The values shown are the average of at least three parallel trials. Inhibition rate (%) =1 − (ODsample − ODblank)/(ODnegative − ODblank) × 100%.
For orientation: Formazan colour is commonly taken as a measure of viable cells.

Test [1] has as its system BGC-823 cells. Description: AO/EB double staining. The conditions noted are these: BGC-823, 0.5 IC50, IC50, 1.5 IC50, 24 h. The test is classed as cell-based, Human. Here is the method:
AO (500 μL, 1 mg/mL) and EB (500 μL, 1 mg/mL) were mixed, and then 4 mL PBS was added to the above solution to form AO/EB dye […]. AO/EB dye (100 μL) was added to each well. After incubating for 3–5 min and washing twice with cold PBS, BGC-823 cells were observed immediately under an inverted fluorescence microscope.

For test [2], the system named is BGC-823 cells. Nature of the test: MTT cytotoxicity assay, BGC-823 cells. The test is classed as cell-based. As to conditions: Homo sapiens, 48 h, read-out: IC50 against BGC-823. On the procedure:
as §1

The test system of the next test is HL-7702 cells. Description: MTT cytotoxicity assay, normal cells HL-7702. In kind it is cell-based. As to conditions: L02, 48 h, normal human hepatocytes, read-out: IC50 against HL-7702. Here is the method:
as §1

Test [3] deals with CT-DNA. Nature of the test: UV/Vis absorbance titration with CT-DNA. The test is classed as binding. The conditions noted are these: hyperchromic effects at 205 nm and 260 nm, no wavelength shift. Here is the method: The binding patterns of 10a and 10f with CT-DNA were measured by UV/Vis spectroscopy in Tris-HCl buffer (0.05 M Tris-HCl/0.1 M NaCl, pH 7.4). The stock solution concentrations of both 10a and 10f in DMSO were 10^−3 M. CT-DNA was dissolved in Tris-HCl buffer and stored at 4 °C for use. The stock solution concentration of CT-DNA was determined by UV/Vis absorbance at 260 nm with the extinction coefficient 6600 M^−1·cm^−1 [67]. Tris-HCl buffer was used as a blank to make preliminary adjustments. Absorbance titration experiments were performed at room temperature with the concentrations of 10a and 10f at 0.1 µM, varying the concentrations of CT-DNA (0.2, 0.4, 0.6, 0.8, and 1 µM). The solution was allowed to equilibrate for 2–3 h before measurement. UV/Vis absorption spectra were recorded in the range of 200–400 nm. The binding constant was calculated according to the following equation [54]: […]=[DNA]/(εb−εf)+1/Kb(εb−εf), where εa corresponds to the observed extinction coefficient (A/[DNA]), εf corresponds to the extinction coefficient of the free compound, and εb is the extinction coefficient of the compound when fully bound to CT-DNA. [DNA] is the concentration of CT-DNA added to the compound. The Kb values of 10a and 10f were calculated from the slope to intercept ratio, which was obtained by plotting a graph of [DNA]/(εa − εf) versus [DNA].

Test [4] concerns CT-DNA. Nature of the test: Circular dichroism spectra of CT-DNA. As to conditions: CT-DNA 600 μM, compound 100 μM, Tris-HCl pH 7.4. In kind it is binding. On the procedure:
The CD spectra of CT-DNA in the absence and presence of 10a or 10f were measured after equilibrating for 1 h in a 1 mm diameter quartz colorimeter at room temperature. The concentration of CT-DNA was fixed at 600 μM in each sample. Both 10a and 10f were added to the above CT-DNA solution at a concentration of 100 μM, respectively. The scanning speed was 200 nm/min. The spectra were scanned on an average of six times in the range of 200–400 nm. All measurements were performed in 0.05 M Tris-HCl buffer (pH 7.4).
For orientation: CD spectra are sensitive to the conformation of chiral molecules.

Another test concerns BEL-7402 cells. Nature of the test: MTT cytotoxicity assay, BEL-7402 cells. The test is classed as cell-based. As to conditions: Homo sapiens, 48 h, read-out: IC50 against BEL-7402. Here is the method:
as §1

The test system of a further test is MCF-7 cells. Description: MTT cytotoxicity assay, MCF-7 cells. The test is classed as cell-based. The conditions noted are these: Homo sapiens, MCF7, 48 h, read-out: IC50 against MCF-7. On the procedure: as §1
A further test has as its system DNA. On the set-up: method as in PMID 3427013. As to conditions: classical intercalator; cited from earlier work.
Test [5] concerns the target epidermal growth factor receptor kinase. On the set-up: method as in PMID 30633509. As to conditions: dual epidermal growth factor receptor kinase and microtubule inhibitor; cited from earlier work.
Test [6] deals with BGC-823 cells. Description: ROS detection (DCFH-DA) by flow cytometry. In kind it is cell-based, Human. The conditions noted are these: 24 h. Here is the method: According to the instructions of ROS Detection Kit (Solarbio, Beijing, China), in situ probe loading was adopted. ROS intensity changes were determined by inverted fluorescence microscopy and flow cytometry. The whole experiment was carried out under dark conditions.

Each structure is given as a SMILES string. Bounds are passed on as bounds.

For the compound `Brc1cccc(/C=N/Nc2cc(N/N=C/c3cccc(Br)n3)ncn2)n1` [Compound 10a, 4,6-Bis(2-((E)-(6-bromopyridin-2-yl)methylene)hydrazinyl)pyrimidine], the IC50 (in general, the concentration that gives 50% inhibition) with A549 cells is 26.96 ± 0.14 µM; with BGC-823 cells [2] it was 9 ± 0.6 µM; in the test on HL-7702 cells, more than 100 µM; in the test with BEL-7402 cells it was 6.7 ± 0.4 µM; in the test on MCF-7 cells, 22.93 ± 0.16 µM. Also, the “apoptosis by AO/EB double staining (morphology)” value with BGC-823 cells [1] is on record as “induce apoptosis of BGC-823 cells in a dose-dependent manner”. Besides, the “interaction mode with DNA (absorption spectra)” value in the test with CT-DNA [3] is “groove binding and partial intercalation”. In addition, the “change of positive (279 nm) and negative (247 nm) CD bands of CT-DNA” value in the test with CT-DNA [4] is “decreased in intensity”.

As to `CC[n+]1c(-c2ccccc2)c2cc(N)ccc2c2ccc(N)cc21` [EB, Ethidium bromide], in the test with DNA, the “binding constant with DNA” value is given as ~10^7 M^−1.

On to `COc1cc(Nc2ncnc3cc(-c4ccc(C)cc4)sc23)cc(OC)c1OC` [Compound 2], for which the IC50 in test [5] was 0.03 µM.

As to `Brc1cccc(/C=N/Nc2cc(N/N=C/c3cccc(Br)n3)nc(-c3ccccc3)n2)n1` [Compound 10d, 4,6-Bis(2-((E)-(6-bromopyridin-2-yl)methylene)hydrazinyl)-2-phenylpyrimidine], the IC50 in the test with A549 cells is 47.1 ± 0.8 µM; with BGC-823 cells [2] it was 20.8 ± 2.69 µM; with HL-7702 cells, more than 100 µM; in the test with BEL-7402 cells, 22.5 ± 2.83 µM; in the test with MCF-7 cells, 27.6 ± 0.45 µM.

Consider `C(=N\Nc1cc(N/N=C/c2ccccn2)ncn1)/c1ccccn1` [Compound 10b, 4,6-Bis(2-((E)-pyridin-2-ylmethylene)hydrazinyl)pyrimidine], for which the IC50 was 27.3 ± 0.86 µM in the test on A549 cells; 20.9 ± 0.82 µM with BGC-823 cells [2]; 38.4 ± 0.58 µM in the test with HL-7702 cells; 15 ± 2 µM with BEL-7402 cells; 39.8 ± 1.18 µM in the test on MCF-7 cells.

`C(=N\Nc1cc(N/N=C/c2ccccn2)nc(-c2ccccc2)n1)/c1ccccn1` [Compound 10e, 4,6-Bis(2-((E)-pyridin-2-ylmethylene)hydrazinyl)-2-phenylpyrimidine]: the IC50 in the test with A549 cells is 30.3 ± 0.65 µM; in the test with BGC-823 cells [2] it was 17.7 ± 0.24 µM; in the test with HL-7702 cells, more than 100 µM; in the test on BEL-7402 cells, 20.2 ± 1.43 µM; in the test with MCF-7 cells, 15.7 ± 2 µM.

`Cc1cccc(/C=N/Nc2cc(N/N=C/c3cccc(C)n3)ncn2)n1` [Compound 10c, 4,6-Bis(2-((E)-(6-methylpyridin-2-yl)methylene)hydrazinyl)pyrimidine]: the IC50 worked out at 37.3 ± 2.3 µM in the test with A549 cells; 26.21 ± 0.1 µM in the test on BGC-823 cells [2]; 60.51 ± 0.21 µM in the test on HL-7702 cells; 29.5 ± 0.61 µM in the test with BEL-7402 cells; 24 ± 0.43 µM with MCF-7 cells.

Take `Cc1cccc(/C=N/Nc2cc(N/N=C/c3cccc(C)n3)nc(-c3ccccc3)n2)n1` [Compound 10f, 4,6-Bis(2-((E)-(6-methylpyridin-2-yl)methylene)hydrazinyl)-2-phenylpyrimidine]: the IC50 with A549 cells is 37.7 ± 1.37 µM; with BGC-823 cells [2] it was 7.89 ± 0.78 µM; in the test with HL-7702 cells, more than 100 µM; with BEL-7402 cells it was 7.66 ± 0.55 µM; in the test on MCF-7 cells it was 10.6 ± 0.14 µM. For the same compound, the “apoptosis by AO/EB double staining (morphology)” value in the test on BGC-823 cells [1] is “induce apoptosis of BGC-823 cells in a dose-dependent manner”. The “ROS fluorescence intensity (DCF)” value worked out at 27.6 in the test with BGC-823 cells [6] (BGC-823, 4 μM) and 32.2 with BGC-823 cells [6] (BGC-823, 8 μM). In the test on CT-DNA [3], the “interaction mode with DNA (absorption spectra)” value was “groove binding and partial intercalation”. Also, the “change of positive (279 nm) and negative (247 nm) CD bands of CT-DNA” value in the test with CT-DNA [4] is reported as “decreased in intensity”.

Turning to `O=c1[nH]cc(F)c(=O)[nH]1` [Compound 5-FU, 5-fluorouracil, reference compound], the IC50 with A549 cells was determined as 11.8 ± 0.89 µM; in the test with BGC-823 cells [2], 15.18 ± 0.05 µM; in the test on HL-7702 cells, 20.83 ± 0.05 µM; in the test on BEL-7402 cells it was 15.81 ± 0.01 µM; with MCF-7 cells, 11.3 ± 0.78 µM.
